Assay [1] deals with rArU (AU homopolynucleotide) (RNA, polymer) A/U. The assay can be described thus: UV thermal melting at 260 nm. The following applies: Na+ (sodium cacodylate, I = 0.05 mol dm^-3); sodium cacodylate buffer pH 7.0; r = [compound]/[polynucleotide] = 0.1; per base.
The test system is the same in assay [2]. The assay can be described thus: fluorescence titration, Scatchard equation. As to conditions: Na+ (sodium cacodylate, I = 0.05 mol dm^-3); sodium cacodylate buffer pH 7.0, 25 °C; RNA concentration as phosphates; per base.

Molecules are shown by their SMILES.

`N#Cc1cc2cc3ccc(N4CCNCC4)cc3nc2n2c1nc1ccccc12`: the ΔTm in assay [1] came to 4.9 ± 0.5 °C. This molecule also yielded a logKa in assay [2] of 7.9.
In the case of `CN(C)CCCNc1ccc2cc3cc(C#N)c4nc5ccccc5n4c3nc2c1`, in assay [1], the ΔTm was 1.1 ± 0.5 °C. This molecule yielded a logKa in assay [2] of 8.6.

These data come from article PMC10889688 (2024).
